Laboratory results from patent US9340590B2 (priority 2011, dated 2016).
Read-outs that look alike come from different tables or passages of the source. Positions of bridges follow the written chain, without caps; N, C: chain ends. Residues, ends and D or L forms follow the SMILES beside them.

Key:
Assay in all cases: cell-based
hNav1.5 = hNav1.5 (Homo sapiens, UniProt Q14524); conditions: IonWorks Quattro; clamped to −110 mV, depolarized to −10 mV, 5 min after compound; n=2; read-out: IWQ Use Nav1.5
hNav1.3 [1] = molecular target: T1, hNav1.3 (Homo sapiens, UniProt Q9NY46); conditions: IonWorks Quattro; clamped to −110 mV, depolarized to −10 mV, 5 min after compound; n=2; read-out: IWQ Use Nav1.3
hNav1.7 [2] = molecular target: T2, hNav1.7 (Homo sapiens, UniProt Q15858); conditions: Nav1.7 Use IC50
hNav1.7 [3] = molecular target: T2, hNav1.7; type: cell-based; conditions: IonWorks Quattro; clamped to −110 mV, depolarized to −10 mV, 5 min after compound; n=2; read-out: IWQ Use Nav1.7
hNav1.3 [4] = molecular target: T1, hNav1.3; type: cell-based; conditions: for IC50: Nav1.3 Use IC50

T1 sequence (Q9NY46 whole entry, looked up): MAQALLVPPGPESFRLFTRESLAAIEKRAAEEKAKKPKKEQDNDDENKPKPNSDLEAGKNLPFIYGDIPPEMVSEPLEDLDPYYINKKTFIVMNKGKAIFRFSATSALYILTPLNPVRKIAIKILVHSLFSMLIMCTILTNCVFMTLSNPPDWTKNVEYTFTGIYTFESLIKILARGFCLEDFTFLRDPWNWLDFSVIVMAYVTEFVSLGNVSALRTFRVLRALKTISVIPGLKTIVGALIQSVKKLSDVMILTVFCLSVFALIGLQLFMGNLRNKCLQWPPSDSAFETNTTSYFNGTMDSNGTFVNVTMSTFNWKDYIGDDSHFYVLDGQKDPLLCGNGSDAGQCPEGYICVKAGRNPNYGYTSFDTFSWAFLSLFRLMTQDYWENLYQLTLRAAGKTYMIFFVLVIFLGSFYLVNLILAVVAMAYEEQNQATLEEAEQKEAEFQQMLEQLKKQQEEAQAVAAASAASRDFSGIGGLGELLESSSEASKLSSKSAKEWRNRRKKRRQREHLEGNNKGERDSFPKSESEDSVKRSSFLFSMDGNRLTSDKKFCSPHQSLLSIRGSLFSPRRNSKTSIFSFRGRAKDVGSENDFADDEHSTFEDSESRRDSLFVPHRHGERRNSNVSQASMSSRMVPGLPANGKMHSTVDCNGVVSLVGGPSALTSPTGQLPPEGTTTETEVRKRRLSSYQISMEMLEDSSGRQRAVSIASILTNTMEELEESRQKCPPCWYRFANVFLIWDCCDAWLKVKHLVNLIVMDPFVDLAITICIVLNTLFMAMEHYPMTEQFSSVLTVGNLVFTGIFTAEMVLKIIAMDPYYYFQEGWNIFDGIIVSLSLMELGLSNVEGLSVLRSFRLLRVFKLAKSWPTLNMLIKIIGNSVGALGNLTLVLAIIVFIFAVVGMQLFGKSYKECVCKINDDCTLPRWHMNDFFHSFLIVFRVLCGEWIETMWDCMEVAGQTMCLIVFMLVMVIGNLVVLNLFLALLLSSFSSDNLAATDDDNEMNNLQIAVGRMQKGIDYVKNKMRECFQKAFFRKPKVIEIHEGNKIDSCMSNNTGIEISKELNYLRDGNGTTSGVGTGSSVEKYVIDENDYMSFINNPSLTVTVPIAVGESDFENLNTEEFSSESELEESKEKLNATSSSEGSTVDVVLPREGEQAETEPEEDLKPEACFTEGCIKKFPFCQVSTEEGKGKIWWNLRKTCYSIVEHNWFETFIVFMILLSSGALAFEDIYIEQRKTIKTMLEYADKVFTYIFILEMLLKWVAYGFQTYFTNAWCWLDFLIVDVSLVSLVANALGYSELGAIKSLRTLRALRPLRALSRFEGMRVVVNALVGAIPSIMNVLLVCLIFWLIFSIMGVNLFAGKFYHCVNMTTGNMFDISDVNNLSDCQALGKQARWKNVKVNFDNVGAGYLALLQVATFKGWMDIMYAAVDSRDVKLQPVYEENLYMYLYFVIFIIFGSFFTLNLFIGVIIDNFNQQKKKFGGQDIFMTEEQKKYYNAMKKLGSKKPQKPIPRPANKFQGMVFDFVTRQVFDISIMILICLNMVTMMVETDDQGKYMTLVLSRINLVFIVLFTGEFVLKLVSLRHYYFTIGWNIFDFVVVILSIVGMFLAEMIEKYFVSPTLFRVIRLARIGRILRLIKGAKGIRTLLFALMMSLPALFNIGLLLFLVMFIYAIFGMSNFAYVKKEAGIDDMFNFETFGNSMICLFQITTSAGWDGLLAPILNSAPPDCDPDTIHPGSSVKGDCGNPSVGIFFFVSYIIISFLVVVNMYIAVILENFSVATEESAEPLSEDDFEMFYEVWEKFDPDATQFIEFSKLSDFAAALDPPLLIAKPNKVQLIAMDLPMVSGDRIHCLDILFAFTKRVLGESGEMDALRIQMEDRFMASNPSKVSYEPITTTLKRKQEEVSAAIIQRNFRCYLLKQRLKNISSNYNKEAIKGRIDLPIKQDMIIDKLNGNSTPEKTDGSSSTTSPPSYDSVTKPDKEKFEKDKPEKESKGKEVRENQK
T2 sequence (Q15858 whole entry, looked up): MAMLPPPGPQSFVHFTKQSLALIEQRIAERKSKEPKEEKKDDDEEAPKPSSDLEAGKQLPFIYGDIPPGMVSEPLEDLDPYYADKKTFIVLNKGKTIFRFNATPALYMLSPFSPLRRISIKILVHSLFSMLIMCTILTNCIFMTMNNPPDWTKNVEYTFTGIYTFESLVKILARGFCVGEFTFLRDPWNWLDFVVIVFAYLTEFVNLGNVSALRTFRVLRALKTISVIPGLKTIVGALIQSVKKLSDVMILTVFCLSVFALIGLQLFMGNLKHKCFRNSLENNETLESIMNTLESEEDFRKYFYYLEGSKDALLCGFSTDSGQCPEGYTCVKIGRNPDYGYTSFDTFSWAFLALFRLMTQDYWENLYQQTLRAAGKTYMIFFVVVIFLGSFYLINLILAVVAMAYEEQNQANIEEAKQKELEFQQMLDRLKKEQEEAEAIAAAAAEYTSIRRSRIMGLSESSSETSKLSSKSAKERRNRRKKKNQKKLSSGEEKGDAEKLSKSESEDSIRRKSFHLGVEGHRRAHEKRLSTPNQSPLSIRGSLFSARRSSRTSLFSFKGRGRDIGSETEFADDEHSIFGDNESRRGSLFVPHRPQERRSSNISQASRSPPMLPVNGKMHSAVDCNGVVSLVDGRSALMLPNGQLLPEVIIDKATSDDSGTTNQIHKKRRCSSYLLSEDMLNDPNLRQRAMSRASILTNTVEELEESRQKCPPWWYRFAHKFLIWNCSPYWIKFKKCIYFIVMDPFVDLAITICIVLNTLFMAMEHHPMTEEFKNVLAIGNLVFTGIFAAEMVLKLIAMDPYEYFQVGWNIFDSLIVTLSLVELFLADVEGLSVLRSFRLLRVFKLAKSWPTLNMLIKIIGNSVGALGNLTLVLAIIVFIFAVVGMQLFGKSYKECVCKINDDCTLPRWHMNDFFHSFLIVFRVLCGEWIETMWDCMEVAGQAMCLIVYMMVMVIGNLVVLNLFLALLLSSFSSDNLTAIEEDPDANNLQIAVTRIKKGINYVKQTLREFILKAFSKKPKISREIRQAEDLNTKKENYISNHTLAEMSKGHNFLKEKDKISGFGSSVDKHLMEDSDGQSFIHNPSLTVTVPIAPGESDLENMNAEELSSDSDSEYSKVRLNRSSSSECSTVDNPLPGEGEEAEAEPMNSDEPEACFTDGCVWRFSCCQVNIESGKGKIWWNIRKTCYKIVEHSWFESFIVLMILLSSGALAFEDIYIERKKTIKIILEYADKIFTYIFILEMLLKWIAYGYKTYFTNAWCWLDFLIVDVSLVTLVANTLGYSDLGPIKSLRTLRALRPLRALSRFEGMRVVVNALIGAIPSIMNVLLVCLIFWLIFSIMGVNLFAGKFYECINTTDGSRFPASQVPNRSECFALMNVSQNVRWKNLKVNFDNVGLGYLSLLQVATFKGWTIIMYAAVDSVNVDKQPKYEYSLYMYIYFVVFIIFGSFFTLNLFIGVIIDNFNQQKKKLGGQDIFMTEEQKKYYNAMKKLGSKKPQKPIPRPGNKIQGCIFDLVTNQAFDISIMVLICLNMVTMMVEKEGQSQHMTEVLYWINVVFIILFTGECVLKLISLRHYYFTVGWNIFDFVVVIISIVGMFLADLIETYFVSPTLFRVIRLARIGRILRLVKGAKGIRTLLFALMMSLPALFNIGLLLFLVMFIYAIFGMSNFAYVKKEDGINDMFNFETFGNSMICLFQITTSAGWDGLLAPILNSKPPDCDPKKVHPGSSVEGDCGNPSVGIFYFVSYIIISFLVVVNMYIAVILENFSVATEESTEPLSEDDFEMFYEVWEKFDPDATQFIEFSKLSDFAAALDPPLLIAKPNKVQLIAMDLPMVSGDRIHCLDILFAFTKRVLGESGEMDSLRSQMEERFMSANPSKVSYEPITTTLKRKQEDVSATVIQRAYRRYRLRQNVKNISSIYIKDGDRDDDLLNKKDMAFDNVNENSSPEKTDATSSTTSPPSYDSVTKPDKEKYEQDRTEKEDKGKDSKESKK

CC[C@H](C)[C@@H]1NC(=O)[C@@H]2CSSC[C@@H]3NC(=O)[C@H](C(C)C)NC(=O)[C@H](CC(C)C)NC(=O)[C@H](CC(N)=O)NC(=O)[C@@H]4CCCN4C(=O)[C@H](CCCNC(=N)N)NC(=O)[C@H](CSSC[C@H](NC(=O)[C@@H](N)CC(=O)O)C(=O)N[C@@H](CC(C)C)C(=O)NCC(=O)N[C@@H](Cc4ccc(I)cc4)C(=O)N[C@@H](CCSC)C(=O)N[C@@H](CCCNC(=N)N)C(=O)N[C@@H](CCCCN)C(=O)N2)NC(=O)[C@H](CSSC[C@@H](C(=O)N[C@@H](CCCCN)C(=O)N[C@@H](Cc2ccc(O)cc2)C(=O)N[C@H](C(=O)N[C@@H](Cc2ccccc2)C(N)=O)C(C)C)NC(=O)[C@H](Cc2c[nH]c4ccccc24)NC(=O)[C@H](CCCCN)NC(=O)[C@H](Cc2c[nH]cn2)NC(=O)[C@H]([C@@H](C)O)NC(=O)[C@H](CCCNC(=N)N)NC(=O)[C@H](CO)NC3=O)NC(=O)[C@H](CCCCN)NC(=O)[C@H](CC(=O)O)NC(=O)[C@H](CC(N)=O)NC(=O)[C@H](CC(=O)O)NC(=O)[C@@H]2CCCN2C1=O [SEQ ID NO: 247]
IC50 (hNav1.5): 6160 nM
IC50 (hNav1.3 [1]): 20 nM
IC50 (hNav1.7 [2]): 247 nM
IC50 (hNav1.7 [3]): 160 nM
potency against NaV1.3, in words (hNav1.3 [4]): increased potency
IC50 (hNav1.3 [4]): 90 nM

CC[C@H](C)[C@@H]1NC(=O)[C@@H]2CSSC[C@@H]3NC(=O)[C@H](C(C)C)NC(=O)[C@H](CC(C)C)NC(=O)[C@H](CC(N)=O)NC(=O)[C@@H]4CCCN4C(=O)[C@H](CCCNC(=N)N)NC(=O)[C@H](CSSC[C@H](NC(=O)[C@@H](N)CC(=O)O)C(=O)N[C@@H](CC(C)C)C(=O)NCC(=O)N[C@@H](Cc4ccccc4)C(=O)N[C@@H](CCSC)C(=O)N[C@@H](CCCNC(=N)N)C(=O)N[C@@H](CCCCN)C(=O)N2)NC(=O)[C@H](CSSC[C@@H](C(=O)N[C@@H](CCCCN)C(=O)N[C@@H](Cc2ccc(O)cc2)C(=O)N[C@H](C(=O)N[C@@H](Cc2ccccc2)C(N)=O)C(C)C)NC(=O)[C@H](Cc2c[nH]c4ccccc24)NC(=O)[C@H](CCCCN)NC(=O)[C@H](Cc2cnc[nH]2)NC(=O)[C@H](CCC(=O)O)NC(=O)[C@H](CCCNC(=N)N)NC(=O)[C@H](CO)NC3=O)NC(=O)[C@H](CCCCN)NC(=O)[C@H](CC(=O)O)NC(=O)[C@H](CC(N)=O)NC(=O)[C@H](CC(=O)O)NC(=O)[C@@H]2CCCN2C1=O [[Glu26]GpTx-1(1-34)] (H-DCLGFMRKCIPDNDKCCRPNLVCSREHKWCKYVF-NH2; disulfide 2-17, 9-23, 16-30)
IC50 (hNav1.7 [2]): 52 nM
IC50 (hNav1.3 [4]): 216 nM

CC[C@H](C)[C@@H]1NC(=O)[C@@H]2CSSC[C@@H]3NC(=O)[C@H](C(C)C)NC(=O)[C@H](CC(C)C)NC(=O)[C@H](CC(N)=O)NC(=O)[C@@H]4CCCN4C(=O)[C@H](CCCNC(=N)N)NC(=O)[C@H](CSSC[C@H](NC(=O)[C@@H](N)CC(=O)O)C(=O)N[C@@H](CC(C)C)C(=O)NCC(=O)N[C@@H](C)C(=O)N[C@@H](CCSC)C(=O)N[C@@H](CCCNC(=N)N)C(=O)N[C@@H](CCCCN)C(=O)N2)NC(=O)[C@H](CSSC[C@@H](C(=O)N[C@@H](CCCCN)C(=O)N[C@@H](Cc2ccc(O)cc2)C(=O)N[C@H](C(=O)N[C@@H](Cc2ccccc2)C(N)=O)C(C)C)NC(=O)[C@H](Cc2c[nH]c4ccccc24)NC(=O)[C@H](CCCCN)NC(=O)[C@H](Cc2cnc[nH]2)NC(=O)[C@H](CC(C)C)NC(=O)[C@H](CCCNC(=N)N)NC(=O)[C@H](CO)NC3=O)NC(=O)[C@H](CCCCN)NC(=O)[C@H](CC(=O)O)NC(=O)[C@H](CC(N)=O)NC(=O)[C@H](CC(=O)O)NC(=O)[C@@H]2CCCN2C1=O [[Ala5;Leu26]GpTx-1(1-34)] (H-DCLGAMRKCIPDNDKCCRPNLVCSRLHKWCKYVF-NH2; disulfide 2-17, 9-23, 16-30)
IC50 (hNav1.7 [2]): 49 nM
IC50 (hNav1.3 [4]): 470 nM

CC[C@H](C)[C@@H]1NC(=O)[C@@H]2CSSC[C@@H]3NC(=O)[C@H](C(C)C)NC(=O)[C@H](CC(C)C)NC(=O)[C@H](CC(N)=O)NC(=O)[C@@H]4CCCN4C(=O)[C@H](CCCNC(=N)N)NC(=O)[C@H](CSSC[C@H](NC(=O)[C@@H](N)CC(=O)O)C(=O)N[C@@H](CC(C)C)C(=O)NCC(=O)N[C@@H](C)C(=O)N[C@@H](Cc4ccccc4)C(=O)N[C@@H](CCCNC(=N)N)C(=O)N[C@@H](CCCCN)C(=O)N2)NC(=O)[C@H](CSSC[C@@H](C(=O)N[C@@H](CCCCN)C(=O)N[C@@H](Cc2ccc(O)cc2)C(=O)N[C@H](C(=O)N[C@@H](Cc2ccccc2)C(N)=O)C(C)C)NC(=O)[C@H](Cc2c[nH]c4ccccc24)NC(=O)[C@H](CCCNC(=N)N)NC(=O)[C@H](Cc2cnc[nH]2)NC(=O)[C@H](CC(C)C)NC(=O)[C@H](CCCNC(=N)N)NC(=O)[C@H](CO)NC3=O)NC(=O)[C@H](CCCCN)NC(=O)[C@H](CC(=O)O)NC(=O)[C@H](CC(N)=O)NC(=O)[C@H](CC(=O)O)NC(=O)[C@@H]2CCCN2C1=O [[Ala5;Phe6;Leu26;Arg28]GpTx-1(1-34)] (H-DCLGAFRKCIPDNDKCCRPNLVCSRLHRWCKYVF-NH2; disulfide 2-17, 9-23, 16-30)
IC50 (hNav1.7 [2]): 2 nM
IC50 (hNav1.3 [4]): 8 nM

CC[C@H](C)[C@@H]1NC(=O)[C@@H]2CSSC[C@@H]3NC(=O)[C@H](C(C)C)NC(=O)[C@H](CC(C)C)NC(=O)[C@H](CC(N)=O)NC(=O)[C@@H]4CCCN4C(=O)[C@H](CCC(=O)O)NC(=O)[C@H](CSSC[C@H](NC(=O)[C@@H](N)CC(=O)O)C(=O)N[C@@H](CC(C)C)C(=O)NCC(=O)N[C@@H](Cc4ccccc4)C(=O)N[C@@H](CCSC)C(=O)N[C@@H](CCCNC(=N)N)C(=O)N[C@@H](CCCCN)C(=O)N2)NC(=O)[C@H](CSSC[C@@H](C(=O)N[C@@H](CCCCN)C(=O)N[C@@H](Cc2ccc(O)cc2)C(=O)N[C@H](C(=O)N[C@@H](Cc2ccccc2)C(N)=O)C(C)C)NC(=O)[C@H](Cc2c[nH]c4ccccc24)NC(=O)[C@H](CCCCN)NC(=O)[C@H](Cc2cnc[nH]2)NC(=O)[C@H]([C@@H](C)O)NC(=O)[C@H](CCCNC(=N)N)NC(=O)[C@H](CO)NC3=O)NC(=O)[C@H](CCCCN)NC(=O)[C@H](CC(=O)O)NC(=O)[C@H](CC(N)=O)NC(=O)[C@H](CC(=O)O)NC(=O)[C@@H]2CCCN2C1=O [[Glu18]GpTx-1(1-34)] (H-DCLGFMRKCIPDNDKCCEPNLVCSRTHKWCKYVF-NH2; disulfide 2-17, 9-23, 16-30)
IC50 (hNav1.7 [2]): 18 nM
IC50 (hNav1.3 [4]): 98 nM

CC[C@H](C)[C@@H]1NC(=O)[C@@H]2CSSC[C@@H]3NC(=O)[C@H](C(C)C)NC(=O)[C@H](CC(C)C)NC(=O)[C@H](CC(N)=O)NC(=O)[C@@H]4CCCN4C(=O)[C@H](CCCNC(=N)N)NC(=O)[C@H](CSSC[C@H](NC(=O)[C@@H](N)CC(=O)O)C(=O)N[C@@H](CC(C)C)C(=O)NCC(=O)N[C@@H](C)C(=O)N[C@@H](Cc4ccccc4)C(=O)N[C@@H](CCCNC(=N)N)C(=O)N[C@@H](CCCCN)C(=O)N2)NC(=O)[C@H](CSSC[C@@H](C(=O)N[C@@H](CCCCN)C(=O)N[C@@H](Cc2ccc(O)cc2)C(=O)N[C@H](C(=O)N[C@@H](Cc2ccccc2)C(N)=O)C(C)C)NC(=O)[C@H](Cc2c[nH]c4ccccc24)NC(=O)[C@H](CCCCN)NC(=O)[C@H](Cc2cnc[nH]2)NC(=O)[C@H](CC(C)C)NC(=O)[C@H](CCCNC(=N)N)NC(=O)[C@H](CO)NC3=O)NC(=O)[C@H](CCCCN)NC(=O)[C@H](CC(=O)O)NC(=O)[C@H](CC(N)=O)NC(=O)[C@H](CC(=O)O)NC(=O)[C@@H]2CCCN2C1=O [[Ala5;Phe6;Leu26]GpTx-1(1-34)] (H-DCLGAFRKCIPDNDKCCRPNLVCSRLHKWCKYVF-NH2; disulfide 2-17, 9-23, 16-30)
IC50 (hNav1.3 [4]): 11 nM

CC[C@H](C)[C@@H]1NC(=O)[C@@H]2CSSC[C@@H]3NC(=O)[C@H](C(C)C)NC(=O)[C@H](CC(C)C)NC(=O)[C@H](CC(N)=O)NC(=O)[C@@H]4CCCN4C(=O)[C@H](CCCNC(=N)N)NC(=O)[C@H](CSSC[C@H](NC(=O)[C@@H](N)CC(=O)O)C(=O)N[C@@H](CC(C)C)C(=O)NCC(=O)N[C@@H](C)C(=O)N[C@@H](Cc4c[nH]c5ccccc45)C(=O)N[C@@H](CCCNC(=N)N)C(=O)N[C@@H](CCCCN)C(=O)N2)NC(=O)[C@H](CSSC[C@@H](C(=O)N[C@@H](CCCCN)C(=O)N[C@@H](Cc2ccc(O)cc2)C(=O)N[C@H](C(=O)N[C@@H](Cc2ccccc2)C(N)=O)C(C)C)NC(=O)[C@H](Cc2c[nH]c4ccccc24)NC(=O)[C@H](CCCCN)NC(=O)[C@H](Cc2cnc[nH]2)NC(=O)[C@H]([C@@H](C)O)NC(=O)[C@H](CCCNC(=N)N)NC(=O)[C@H](CO)NC3=O)NC(=O)[C@H](CCCCN)NC(=O)[C@H](CC(=O)O)NC(=O)[C@H](CC(N)=O)NC(=O)[C@H](CC(=O)O)NC(=O)[C@@H]2CCCN2C1=O [[Ala5;Trp6]GpTx-1(1-34)] (H-DCLGAWRKCIPDNDKCCRPNLVCSRTHKWCKYVF-NH2; disulfide 2-17, 9-23, 16-30)
IC50 (hNav1.7 [2]): 57 nM
IC50 (hNav1.3 [4]): 81 nM
